{
  "source": "patent US9271993B2",
  "about": "“Treatment of bacterial infectious diseases” (priority 2010, dated 2016)",
  "key": {"E. coli": {"system": "E. coli", "assay": "MIC against gram-negative bacteria", "format": "cell-based", "source_text": "Agents Chemother. 2003, 47:1496-1502."}, "[1]": {"system": "Cochlear explants from newborn mice", "assay": "Cochleatoxicity in vitro, hair cell loss in cochlear explants", "format": "cell-based", "experimental": "FIG. 1: Cochleatoxicity in vitro\n(a) Dose-response relationship of drug-induced hair cell loss in cochlear explants. Hair cell loss was quantified along the entire length of the explant and plotted against drug concentration. %=% outer hair cells missing.\nCochlear explants from newborn mice were treated with 0.5 mM aminoglycoside compound for 24 h; subsequently hair cell damage was assessed by epifluorescence microscopy."}, "[2]": {"assay": "General toxicity in guinea pigs", "format": "in vivo", "settings": "systemic, once daily for 14 days, monitored additional 14 days", "from_the_text": "Guinea pigs received a systemic application of aminoglycosides once daily in the dosing indicated in Table 9 for 14 days and were then monitored for an additional 14 days."}, "[3]": {"system": "clinical methicillin resistant Staphylococcus aureus (MRSA) isolates", "assay": "MIC against clinical MRSA isolates, LB microdilution assay", "method": "Activity was assessed by determination of minimal inhibitory concentrations (MIC), as described in Pfister et al., Antimicrob. […] Cultures from single colonies were grown in LB medium and used for MIC tests in a microtiter plate format. Starting cultures contained 200 μl of bacterial cells at an optical density of 0.025 at 600 nm, and the respective drug was added in twofold series of dilution."}, "bacterial ribosomes": {"system": "bacterial ribosomes", "assay": "Ribosomal drug susceptibility (MIC) of recombinant bacteria", "parameters": "MIC, bacterial ribosomes: unit not given beside the values", "settings": "Table 7; 72 h incubation"}, "mitohybrid ribosomes": {"system": "mitohybrid ribosomes", "assay": "Ribosomal drug susceptibility (MIC) of recombinant bacteria", "parameters": "MIC, mitohybrid ribosomes: unit not given beside the values", "settings": "Table 7; 72 h incubation"}, "cytohybrid ribosomes": {"system": "cytohybrid ribosomes", "assay": "Ribosomal drug susceptibility (MIC) of recombinant bacteria", "parameters": "MIC, cytohybrid ribosomes: unit not given beside the values", "settings": "Table 7; 72 h incubation"}},
  "data": [
    {"substance": "Gentamicin", "values": [
      {"measurement": "MIC", "setting": "E. coli; E. coli AG01, clin. isol. (Gm^S)", "value": "4 to 8", "unit": "µg/mL"},
      {"measurement": "MIC", "setting": "E. coli; E. coli AG02, clin. isol (Gm^S)", "value": 2, "unit": "µg/mL"},
      {"measurement": "MIC", "setting": "E. coli; E. coli AG03, clin. isol (Gm^R)", "value": "256 to 512", "unit": "µg/mL"},
      {"measurement": "MIC", "setting": "E. coli; E. coli AG06, BM13", "value": 0.5, "unit": "µg/mL"},
      {"measurement": "MIC", "setting": "E. coli; E. coli AG08, BM13/pIP055, resistance mechanism ANT(2″)", "value": 16, "unit": "µg/mL"},
      {"measurement": "MIC", "setting": "E. coli; E. coli AG09, AAC(6′)-1B, resistance mechanism AAC(6′)", "value": "8 to 16", "unit": "µg/mL"},
      {"measurement": "MIC", "setting": "E. coli; E. coli AG36, HB101/pAT197, resistance mechanism ANT(4′)", "value": 0.5, "unit": "µg/mL"},
      {"measurement": "MIC", "setting": "E. coli; E. coli AG37, HB101/pAG21-1, resistance mechanism APH(3′)", "value": 0.25, "unit": "µg/mL"},
      {"measurement": "Hair cell count", "setting": "[1]; 0.5 mM aminoglycoside for 24 h, epifluorescence microscopy", "value": "almost all hair cells (inner and outer) missing"},
      {"measurement": "inner and outer hair cells missing / lost", "setting": "[1]; 0.5 mM, FIG. 1", "value": "> 80", "unit": "%"},
      {"measurement": "observations (general toxicity)", "setting": "[2]; 120 mg/kg base", "value": "normal weight gain"},
      {"measurement": "observations (general toxicity)", "setting": "[2]; 140 mg/kg base", "value": "significant weight loss"},
      {"measurement": "observations (general toxicity)", "setting": "[2]; 160 mg/kg base", "value": "2 out of 3 died"},
      {"measurement": "MIC", "setting": "[3]; MRSA AG038, strain 70-26S Gm^S", "value": 0.5, "unit": "µg/mL"},
      {"measurement": "MIC", "setting": "[3]; MRSA AG040, strain 87-26S Gm^S", "value": 0.5, "unit": "µg/mL"},
      {"measurement": "MIC", "setting": "[3]; MRSA AG041, strain 98-25S Gm^S", "value": 0.5, "unit": "µg/mL"},
      {"measurement": "MIC", "setting": "[3]; MRSA AG042, strain 101-06R Gm^R", "value": "32 to 64", "unit": "µg/mL"},
      {"measurement": "MIC", "setting": "[3]; MRSA AG043, strain 01-08R Gm^R", "value": "32 to 64", "unit": "µg/mL"},
      {"measurement": "MIC", "setting": "[3]; MRSA AG044, strain 07-12R Gm^R", "value": 16, "unit": "µg/mL"},
      {"measurement": "MIC", "setting": "[3]; MRSA AG045, strain 08-12R Gm^R", "value": 16, "unit": "µg/mL"},
      {"measurement": "MIC", "setting": "[3]; MRSA AG046, strain 12-06R Gm^R", "value": "≧256 mg/l"},
      {"measurement": "MIC", "setting": "[3]; MRSA AG047, strain 18-06R Gm^R", "value": "≧256 mg/l"},
      {"measurement": "MIC", "setting": "[3]; MRSA AG048, strain 20-06R Gm^R", "value": "≧256 mg/l"},
      {"measurement": "MIC", "setting": "[3]; MRSA AG049, strain 23-12R Gm^R", "value": 16, "unit": "µg/mL"},
      {"measurement": "MIC", "setting": "[3]; MRSA AG050, strain 31-06R Gm^R", "value": 128, "unit": "µg/mL"},
      {"measurement": "MIC", "setting": "[3]; MRSA AG051, strain 36-06R Gm^R", "value": 128, "unit": "µg/mL"},
      {"measurement": "MIC", "setting": "[3]; MRSA AG052, strain 53-14I Gm^R", "value": "16 to 32", "unit": "µg/mL"},
      {"measurement": "MIC", "setting": "[3]; MRSA AG053, strain 56-06R Gm^R", "value": 64, "unit": "µg/mL"},
      {"measurement": "MIC, bacterial ribosomes", "setting": "bacterial ribosomes", "value": 1},
      {"measurement": "MIC, mitohybrid ribosomes", "setting": "mitohybrid ribosomes", "value": 128},
      {"measurement": "MIC, cytohybrid ribosomes", "setting": "cytohybrid ribosomes", "value": 1024}
    ]}
  ]
}
